Assay [1] concerns the target T1, rFAAH (Rattus norvegicus, UniProt P97612).
T1 construct: from tissue; host or cells: rat brain membranes
T1 sequence (P97612 1-579): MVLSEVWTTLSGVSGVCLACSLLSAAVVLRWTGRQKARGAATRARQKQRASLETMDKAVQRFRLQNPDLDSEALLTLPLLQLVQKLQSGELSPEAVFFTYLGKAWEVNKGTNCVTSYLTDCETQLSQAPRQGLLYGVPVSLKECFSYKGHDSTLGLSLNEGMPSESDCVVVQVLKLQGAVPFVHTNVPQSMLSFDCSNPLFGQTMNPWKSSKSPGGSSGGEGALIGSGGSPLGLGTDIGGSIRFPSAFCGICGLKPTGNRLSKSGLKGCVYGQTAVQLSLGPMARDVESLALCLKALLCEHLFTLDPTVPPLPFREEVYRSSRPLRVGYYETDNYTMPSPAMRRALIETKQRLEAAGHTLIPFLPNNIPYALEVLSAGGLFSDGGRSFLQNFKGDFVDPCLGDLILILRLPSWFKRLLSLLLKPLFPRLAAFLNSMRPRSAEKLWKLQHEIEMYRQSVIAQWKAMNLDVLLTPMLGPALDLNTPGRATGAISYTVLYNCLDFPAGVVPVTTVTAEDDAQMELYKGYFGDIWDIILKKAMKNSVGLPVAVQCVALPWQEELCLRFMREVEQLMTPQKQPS
The assay is described as follows: FAAH activity assay, rat brain membranes, [14C]AEA hydrolysis. Type of assay: biochemical. The settings on record: for % In Vitro Inhibition (At 100 µm): rFAAH, compound at 100 µm. How it is done:
(§1) Rat brains were homogenized in 50 mM Tris-HCl (50 mM, pH 7.4), and were centrifuged sequentially at 800× g and 20,000× g; then, the supernatants were discharged, and rFAAH activity was tested in membrane preparations incubated with 10 µM [^14C]AEA at 37 °C for 15 min (pH = 9.0). The reaction was stopped with a 1:1 (v/v) mixture of chloroform/methanol and the release of [^14C]ethanolamine in the aqueous phase was measured as reported. Purified human FAAH was assayed in the same way as rFAAH.

Assay [2] deals with T2, hFAAH (Homo sapiens, UniProt O00519).
T2 construct: purchased Cayman Chemical Company
T2 sequence (O00519 1-579): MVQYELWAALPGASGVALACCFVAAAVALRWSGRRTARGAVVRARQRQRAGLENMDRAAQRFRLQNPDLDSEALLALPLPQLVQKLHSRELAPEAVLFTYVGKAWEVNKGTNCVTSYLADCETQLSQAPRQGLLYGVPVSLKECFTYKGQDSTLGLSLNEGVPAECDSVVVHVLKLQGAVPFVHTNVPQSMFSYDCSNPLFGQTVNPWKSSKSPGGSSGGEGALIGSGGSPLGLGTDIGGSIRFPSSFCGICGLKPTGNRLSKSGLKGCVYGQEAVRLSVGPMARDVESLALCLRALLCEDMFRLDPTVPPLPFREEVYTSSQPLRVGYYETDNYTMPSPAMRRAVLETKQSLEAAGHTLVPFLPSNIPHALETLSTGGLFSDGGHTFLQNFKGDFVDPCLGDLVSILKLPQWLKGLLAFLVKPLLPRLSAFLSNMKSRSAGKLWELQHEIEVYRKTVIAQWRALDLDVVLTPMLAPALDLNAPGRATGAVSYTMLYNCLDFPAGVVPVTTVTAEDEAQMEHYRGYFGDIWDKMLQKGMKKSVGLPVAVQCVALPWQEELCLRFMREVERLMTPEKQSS
In words: FAAH activity assay, purified human FAAH, [14C]AEA hydrolysis. Type of assay: biochemical. How it is done:
as §1

The subject of assay [3] is TRPA1 channels. On the set-up: method as in PMID 21726418. The following applies: read-out: EC50, agonist of TRPA1 channels; cited from earlier work.
Assay [4] has as its system FAAH. On the set-up: method as in PMID 21392988. The settings on record: non-covalent inhibitor co-crystallized in 3QK5; read-out: half-maximal inhibitory concentration (IC50); cited from earlier work.
Setting [5] is: rat brain membranes, 10 µM [14C]AEA, 37 °C, 15 min, pH 9.0, dose-response 0–100 µM, read-out: IC50 Towards rFAAH.
[6] abbreviates: purified human FAAH, 10 µM [14C]AEA, 37 °C, 15 min, pH 9.0, dose-response 0–100 µM, read-out: IC50 Towards hFAAH.

Molecules are shown by their SMILES. Like-named read-outs stand apart in the source and are kept apart here.

As a reminder, the EC50 is the concentration at which the effect is half-maximal. The term inhibition denotes the change of the read-out against control, counted positive when it falls.

For `C=C1CC/C=C(\C)CC[C@@H]2[C@@H]1CC2(C)C` [BCP, β-caryophyllene], the “% In Vitro Inhibition (At 100 µm)” value in assay [1] turned out to be 18%. For the same molecule, the IC50 in assay [1] (setting [5]) and in assay [2] (setting [6]) was above 100 µM each time.
Regarding `CCCCCc1cc(O)c2c(c1)OC(C)(CCC=C(C)C)C=C2` (stereo not shown) [CBC, cannabichromene], in assay [3], the concentration for a half-maximal effect (EC50) was 0.09 µM. Further, the “% In Vitro Inhibition (At 100 µm)” value in assay [1] is given as 51%. For the same molecule, the figures for the IC50 in assay [1] (setting [5]) and in assay [2] (setting [6]) were around 100 µM and above 100 µM, respectively.
For the molecule `C=C(C)[C@@H]1CCC(C)=C[C@H]1c1c(O)cc(CCCCC)cc1O` [CBD, cannabidiol, reference compound], the IC50 in assay [2] (setting [6]) was above 100 µM.
Regarding `CCCCCc1cc(O)c(C/C=C(\C)CCC=C(C)C)c(O)c1` [CBG, cannabigerol], the “% In Vitro Inhibition (At 100 µm)” value in assay [1] was 53%. Moreover, the IC50 in assay [1] (setting [5]) is around 100 µM; in assay [2] (setting [6]), above 100 µM.
In the case of `CCCCCc1cc(O)c2c(c1)OC(C)(C)c1ccc(C)cc1-2` [CBN, cannabinol], the IC50 in assay [1] is 60 ± 10 µM; in assay [2], around 100 µM. Further, the “% In Vitro Inhibition (At 100 µm)” value in assay [1] is listed as 65%.
Turning to `Cc1c([C@H]2CCCN(c3nccc(-c4cc5ccccc5s4)n3)C2)c2cccnc2n1CC#N` [QK5], the IC50 in assay [4] was 0.018 µM.
Regarding `CCCc1cc(O)c2c(c1)OC(C)(C)[C@@H]1CCC(C)=C[C@@H]21` [THCV, Δ^9-tetrahydrocannabivarin], in assay [1], the IC50 was above 100 µM and the “% In Vitro Inhibition (At 100 µm)” value worked out at 30%. The molecule further displayed an IC50 in assay [2] above 100 µM.
On to `NC(=O)c1cccc(-c2cccc(OC(=O)NC3CCCCC3)c2)c1` [URB597, reference compound], for which the inhibition at 10 µM in assay [2] (read-out: Inhibition of hFAAH activity compared to controls) is above 99.5%.

Source of the values: paper PMC7795171, “In Silico and In Vitro Analysis of Major Cannabis-Derived Compounds as Fatty Acid Amide Hydrolase Inhibitors” (Molecules, 2020).
